Laboratory results: patent publication US20190016746A1, “AMINOGLYCOSIDE DERIVATIVES AND USES THEREOF IN TREATING GENETIC DISORDERS” (Eloxx Pharmaceuticals Ltd., priority 2016, published 2019)
Like-named read-outs stand apart in the source and are kept apart here.

Key:
[1] = molecular target: eukaryotic cytoplasmic ribosome; test: Eukaryotic in vitro translation inhibition, TNT T7 Quick Coupled Transcription/Translation System with luciferase plasmid; assay type: biochemical; conditions: for IC50: read-out: Translation Inhibition IC50^Euk; for more specific to the eukaryotic ribosome than structurally related compound: NB156 vs NB74, NB157 vs NB124
Protocol: (§1) Prokaryotic in vitro translation inhibition by the different aminoglycosides was quantified in coupled transcription/translation assays by using E. coli S30 extract for circular DNA with the pBESTluc plasmid (Promega), according to the manufacturer's protocol. Translation reactions (25 μL) that contained variable concentrations of the tested aminoglycoside were incubated at 37° C. for 60 minutes, cooled on ice for 5 minutes, and diluted with a dilution reagent (tris-phosphate buffer (25 mM, pH 7.8), DTT (2 mM), 1,2-diaminocyclohexanetetraacetate (2 mM), glycerol (10%), Triton X-100 (1%) and BSA (1 mg mL-1)) into 96-well plates. Eukaryotic in vitro translation inhibition was quantified by use of TNT® T7 Quick Coupled Transcription/Translation System with a luciferase T7 control DNA plasmid (Promega), according to the manufacturer protocol. Translation reactions (25 μL) containing variable concentrations of the tested aminoglycoside were incubated at 30° C. for 60 minutes, cooled on ice for 5 minutes, diluted with the dilution reagent and transferred into 96-well plates. In both prokaryotic and eukaryotic systems the luminescence was measured immediately after the addition of the Luciferase Assay Reagent (50 μL; Promega), and the light emission was recorded with a FLx800 Fluorescence Microplate Reader (Biotek). The half-maximal inhibition concentration (IC50) values were obtained from fitting concentration-response curves to the data of at least two independent experiments by using Grafit 5 software.
(§2) In all biological tests, all AGs were in their sulfate salt forms, and the concentrations refer to the free amine form of each AG. The eukaryotic and prokaryotic half-maximal-inhibition values (IC50^Euk and IC50^Pro) were quantified in coupled transcription/translation assays by using active luciferase detection as previously described. Minimal inhibitory concentration (MIC) values were determined by using the double-microdilution method.

[2] = tested on: E. coli R477-100; test: Antibacterial activity, MIC by double-microdilution method; assay type: cell-based; conditions: for MIC: Escherichia coli, R477100, read-out: Antibacterial activity MIC E. coli R477/100
Protocol: (§3) Comparative antibacterial activities were determined in two representative strains of Gram-negative (E. coli R477-100) and Gram-positive (B. subtilis ATCC-6633) bacteria, by measuring the MIC values using the double-microdilution method according to the National Committee for Clinical Laboratory Standards (NCCLS) (NCCLS. National Committee for Clinical Laboratory Standards, Performance standards for antimicrobial susceptibility testing. Fifth information supplement: Approved Standard M100-S5; Villanova, Pa.: NCCLS, 1994.).
as §2

[3] = tested on: prokaryotic ribosome (E. coli S30 extract); test: Prokaryotic in vitro translation inhibition, E. coli S30 extract with pBESTluc plasmid; assay type: biochemical; conditions: read-out: Translation Inhibition IC50^Pro
Protocol: as §1, §2

[4] = tested on: human fibroblast cells; conditions: cited from earlier work
[5] = tested on: R3X nonsense mutation construct representing USH1 (PCDH15); test: Dual luciferase in vitro readthrough assay, R3X construct; assay type: biochemical; conditions: FIG. 3
Description: (§4) DNA fragments derived from PCDH15, CFTR, and IDUA cDNAs, including the tested nonsense mutation or the corresponding wild type (wt) codon, and four to six upstream and downstream flanking codons were created by annealing the following pairs of complementary oligonucleotides:
(§5) Fragments were inserted in frame into the polylinker of the p2Luc plasmid between either BamHI and SacI (p.R3X and p.R245X) or SalI and SacI (all the rest) restriction sites. For the in vitro readthrough assays, the obtained plasmids, with addition of the tested aminoglycosides were transcribed and translated using the TNT Reticulocyte Lysate Quick Coupled Transcription/Translation System. Luciferase activity was determined after 90 minutes of incubation at 30° C., using the Dual Luciferase Reporter Assay System (Promega™).
FIG. 3 presents comparative plots showing in vitro stop codon suppression levels induced by Compound 1 (-▪-), NB153 (-▴-), and NB155 (-Δ-) in R3X nonsense mutation construct representing USH1 genetic disease.

[6] = tested on: premature termination codon (PTC); test: Comparative in-vitro PTC suppression activity assays (Example 3); assay type: biochemical; conditions: preliminary
Protocol: as §5

[7] = tested on: nonsense constructs R3X (USH1), R245X (USH1), Q70X (HS), G542X (CF); test: Dual luciferase in vitro readthrough assay, four nonsense constructs; assay type: biochemical; conditions: all mutations tested, FIGS. 4A-D; for readthrough activity relative to structurally related compound lacking 7′-hydroxyl: NB156 vs NB74, NB157 vs NB124
Description: as §4, §5
Activity was tested using a collection of dual-luciferase reporter plasmids, containing different sequence contests around premature stop codons derived from the PCDH15, CFTR, and IDUA genes that underline USH1, CF, and MPS I-H, respectively. The exemplified nonsense reporters were R3X and R245X for USH1, G542X for CF, and Q70X for MPS I-H.
The results are averages of at least three independent experiments.

[8] = tested on: stop codon mutations of Table 3; test: Dual-luciferase readthrough assay, broad arsenal of stop codon mutations; assay type: biochemical; conditions: all tested mutations
Protocol: In these assays, the readthrough of a broad arsenal of stop codon mutations in the presence of NB156 and NB157 was tested. Briefly, NB156 and NB157 were tested at escalating doses for their read-through properties towards the nonsense mutation using the wild-type (WT) sequence of each specific complementary DNA (cDNA) as a control, and plasmids bearing the stop codon mutations in a dual-luciferase assay. DNA fragments derived from different cDNAs were prepared using either the WT or nonsense mutation, in which the sequences from the mutant or wild-type codon were surrounded by four to six upstream and downstream flanking codons. The cDNA sequence was inserted into the polylinker of the p2luc plasmid for each sequence.

[9] = tested on: B. subtilis ATCC-6633; test: Antibacterial activity, MIC by double-microdilution method; assay type: cell-based; conditions: Table 2
Protocol: as §3, §2

[10] = Table 2, sulfate salts, concentrations refer to free amine form

Molecule	IC50 [1, 10]	IC50 [3, 10]	IC50 ([1]; Table 4)	IC50 ([3]; Table 4)	also measured
CC(O)C1O[C@H](O[C@@H]2C(N)C[C@@H](N)C(O)C2O[C@@H]2O[C@H]([C@H](C)N)C(O)C2O)C(N)C(O)[C@@H]1O (single isomer, unassigned) [NB124, reference compound]	1.5 ± 0.1 µM	1.1 ± 0.2 µM			MIC [2]: 1270 µM
CN[C@@H]1[C@@H](O)[C@@H](O[C@@H]2[C@@H](O)[C@H](O[C@H]3O[C@H]([C@@H](C)O)[C@@H](O)[C@H](O)[C@H]3N)[C@@H](N)C[C@H]2N)OC[C@]1(C)O [Compound G418, geneticin]					LD50 [4]: 0.04 mg/mL
NC[C@H]1O[C@@H](OC2C(O)[C@H](N)CC(N)[C@H]2O[C@H]2OC(CO)[C@@H](O)C(O)C2N)C(O)C1O (stereo partly shown) [NB30, reference compound]			31 ± 4 µM	0.45 ± 0.03 µM	
C[C@H](N)[C@H]1O[C@@H](OC2C(O)[C@H](N)CC(N)[C@H]2O[C@H]2OC(CO)[C@@H](O)C(O)C2N)C(O)C1O (stereo partly shown) [NB118, reference compound]			15.5 ± 1.3 µM	1.9 ± 0.2 µM	
N[C@H]1[C@@H](O[C@H]2[C@H](O)[C@@H](O)[C@H](N)C[C@@H]2N)O[C@H]([C@H](O)CO)[C@@H](O)[C@@H]1O [NB153, (2R,3S,4R,5R,6S)-5-amino-6-(((1R,2R,3S,4R,6S)-4,6-diamino-2,3-dihydroxycyclohexyl)oxy)-2-((R)-1,2-dihydroxyethyl)tetrahydro-2H-pyran-3,4-diol]	120 ± 14.5 µM	11 ± 1.2 µM			in vitro readthrough activity relative to Compound 1 [5]: dramatically increases
N[C@H]1[C@@H](O[C@H]2[C@H](O)[C@@H](O)[C@H](N)C[C@@H]2N)OC(CO)=C[C@@H]1O [NB154, (1S,2R,3R,4S,6R)-4,6-diamino-3-(((2S,3R,4S)-3-amino-4-hydroxy-6-(hydroxymethyl)-3,4-dihydro-2H-pyran-2-yl)oxy)cyclohexane-1,2-diol]			376 ± 38.6 µM	82.3 ± 11.9 µM	readthrough activity relative to NB82 [6]: more or less similar activity; readthrough activity relative to paromamine [6]: ~3.5 fold
N[C@H]1[C@@H](O[C@H]2[C@H](O)[C@@H](O)[C@H](N)C[C@@H]2N)O[C@H]([C@@H](O)CO)[C@@H](O)[C@@H]1O [NB155, (2R,3S,4R,5R,6S)-5-amino-6-(((1R,2R,3S,4R,6S)-4,6-diamino-2,3-dihydroxycyclohexyl)oxy)-2-((S)-1,2-dihydroxyethyl)tetrahydro-2H-pyran-3,4-diol]	516 ± 15 µM	91.9 ± 8.4 µM			in vitro readthrough activity relative to Compound 1 [5]: somewhat higher activity
NC[C@H]1O[C@@H](O[C@@H]2[C@@H](O)[C@H](N)C[C@H](N)[C@H]2O[C@H]2O[C@H]([C@H](O)CO)[C@@H](O)[C@H](O)[C@H]2N)[C@@H](O)[C@H]1O [NB156, (2R,3S,4R,5R,6S)-5-amino-6-(((1R,2R,3S,4R,6S)-4,6-diamino-2-(((2S,3S,4R,5R)-5-(aminomethyl)-3,4-dihydroxytetrahydrofuran-2-yl)oxy)-3-hydroxycyclohexyl)oxy)-2-((R)-1,2-dihydroxyethyl)tetrahydro-2H-pyran-3,4-diol]	7.5 ± 0.5 µM	0.7 ± 0.1 µM			more specific to the eukaryotic ribosome than structurally related compound [1]: 1.85 fold; readthrough activity relative to gentamicin [7]: significantly better; readthrough activity relative to structurally related compound lacking 7′-hydroxyl [7]: substantially better; stop-codon mutation readthrough activity compared to NB74 [8]: more active than NB74
C[C@H](N)[C@H]1O[C@@H](O[C@@H]2[C@@H](O)[C@H](N)C[C@H](N)[C@H]2O[C@H]2O[C@H]([C@H](O)CO)[C@@H](O)[C@H](O)[C@H]2N)[C@@H](O)[C@H]1O [NB157, (2R,3S,4R,5R,6S)-5-amino-6-(((1R,2R,3S,4R,6S)-4,6-diamino-2-(((2S,3S,4R,5R)-5-((S)-1-aminoethyl)-3,4-dihydroxytetrahydrofuran-2-yl)oxy)-3-hydroxycyclohexyl)oxy)-2-((R)-1,2-dihydroxyethyl)tetrahydro-2H-pyran-3,4-diol]	1.2 µM				more specific to the eukaryotic ribosome than structurally related compound [1]: 1.25 fold; readthrough activity relative to gentamicin [7]: significantly better; readthrough activity relative to structurally related compound lacking 7′-hydroxyl [7]: better
NC[C@H]1O[C@@H](O[C@@H]2C(O)[C@H](N)CC(N)[C@H]2O[C@H]2OC(CO)=CC(O)[C@@H]2N)C(O)[C@H]1O (stereo partly shown) [NB158]			70.7 ± 2.4 µM	36.4 ± 3.5 µM	MIC [2]: > 192 µg/mL
C[C@H](N)[C@H]1O[C@@H](O[C@@H]2C(O)[C@H](N)CC(N)[C@H]2O[C@H]2OC(CO)=CC(O)[C@@H]2N)C(O)[C@H]1O (stereo partly shown) [NB159]			47.9 ± 3.3 µM	134 ± 2.8 µM	MIC [2]: > 192 µg/mL
N[C@H]1[C@@H](O[C@H]2[C@H](O)[C@@H](O)[C@H](N)C[C@@H]2N)O[C@H](CO)[C@@H](O)[C@@H]1O [Paro., paromamine, reference compound]			760 ± 79 µM	14 ± 1.2 µM	
gentamicin [reference compound]	62 µM	0.03 µM			Antibacterial Activity MIC B. Subtilis ATCC6633 [9]: <0.75 µM; Antibacterial Activity MIC E. Coli R 477/100 ([2]; Table 2): 6 µM
